Experimental data as given in patent US20210346354A1, “MACROPINOCYTOSIS IN CANCER” (Memorial Sloan-Kettering Cancer Center, priority 2015, published 2021).

Assays:
K-Ras^G12D MEFs [1] = assay: Proliferation assay (cell numbers) of K-Ras^G12D MEFs in starvation medium; assay type: cell-based, mouse
Procedure: (§1) Cell culture experiments were performed at 37° C. and 5% CO2 in DMEM/F12 with 10% dialyzed FBS (molecular weight cut-off 10,000; Gemini Biosystems), 100 U/mL penicillin, 100 μg/mL streptomycin, 5 mM glucose and 2 mM glutamine. For proliferation assays, MEFs were plated in complete medium, 5 h later briefly rinsed and then cultured in starvation medium as indicated. For EAA titration experiments, EAAs were supplemented at indicated percentages of 1×MEM amino acid solution (M5550, Sigma). Cancer cell lines were cultured in complete medium for 1 day prior to starvation. Numbers of adherent cells, which are >95% viable as assessed by Trypan Blue exclusion were determined using a Multisizer 4 Coulter Counter (Beckman). For mTOR activation and localization experiments, cells were rinsed and then incubated in EAA starvation medium (DMEM/F12 lacking all amino acids except glutamine) for 1 h, and subsequently placed in medium supplemented with EAAs (1×MEM amino acid solution), albumin (3%, if not stated otherwise) or fresh EAA-free starvation medium for indicated periods of time.

K-Ras^G12D MEFs [2] = assay: 14C-leucine labeling of proteins and lipids; assay type: cell-based, mouse; conditions: mean±STDEV (n=3); control cells 364±69
Procedure: Cells were cultured in full medium containing 0.5 μCi (0.4%) L-[^14C(U)]-Leucine (Perkin Elmer) for 24 h. Total lipid and protein fractions were isolated essentially according to the Blight-Dyer method (Bligh and Dyer, 1959). Protein pellets were resolubilized in 6 M guanidine hydrochloride, then transferred to scintillation fluid. Organic phase-dissolved lipids were transferred to scintillation vials, and after solvent evaporation, resuspended in scintillation fluid. ^14C-leucine content of proteins and lipids was quantified by scintillation counting.

[3] = test system: K-Ras mutant tumor cell lines (KRPC, MiaPaCa-2, A549); assay: Proliferation of K-Ras mutant tumor cell lines; assay type: cell-based; conditions: 250 nM torin 1
Procedure: Dashed lines indicate starting cell numbers. P-values were calculated using a two-tailed unpaired t-test. ***p<0.001. […] Under experimental conditions, cells have abundant glucose supplied in their medium and are thus unlikely to utilize leucine for lipid as opposed to protein synthesis during anabolic growth. Consistent with this, when cells were labeled with ^14C-leucine, the ratio of protein to lipid incorporation of label was: control cells 364±69, torin-1 treated cells 203±27, raptor-deficient cells 87±3. Data are represented as mean±STDEV (n=3).
as §1, with “For mTOR activation and localization experiments, cells were rinsed and then incubated in EAA starvation medium (DMEM/F12 lacking all amino acids except glutamine) for 1 h, and subsequently placed in medium supplemented with EAAs (1×MEM amino acid solution), albumin (3%, if not stated otherwise) or fresh EAA-free starvation medium for indicated periods of time.” left out

**Q.** What does the source list for `CCC(=O)N1CCN(c2ccc(-n3c(=O)ccc4cnc5ccc(-c6cnc7ccccc7c6)cc5c43)cc2C(F)(F)F)CC1` [torin 1]?
**A.** cell proliferation (K-Ras^G12D MEFs [1]; 3% albumin, EAAs abundant extracellularly, 250 nM torin 1, day 3): strongly decreased cell proliferation; cell proliferation (K-Ras^G12D MEFs [1]; 3% albumin, low EAA concentrations, 250 nM torin 1, day 3): significantly improved cell proliferation; cell proliferation (K-Ras^G12D MEFs [1]; 3% albumin, over a 10-fold range of EAA concentrations, 250 nM torin 1): only slightly reduced proliferation; cell proliferation (K-Ras^G12D MEFs [1]; free leucine provided extracellularly, increasing doses of torin 1, day 3): decreased with increasing doses; cell proliferation (K-Ras^G12D MEFs [1]; leucine-free medium +3% albumin, torin 1 raised from 50 to 300 nM): progressively improved cell proliferation; cell proliferation (K-Ras^G12D MEFs [1]; medium lacking isoleucine, lysine or arginine, 3% albumin, 250 nM torin 1): induced cells to robustly proliferate; ratio of protein to lipid incorporation of 14C-leucine label (K-Ras^G12D MEFs [2]): 203±27; cell proliferation ([3]; leucine-containing medium +3% albumin, day 3): strongly decreased their proliferation; cell proliferation ([3]; leucine-free medium +3% albumin, day 4): induced several carcinoma cell lines harboring activating Ras mutations to proliferate
